Experimental findings from BindingDB's records for patent US20250034165 (Chia Tai Tianqing Pharmaceutical Group, 2025) are described below.

The structures appear in SMILES notation.

For assay [1], the target named is Epidermal growth factor receptor [T790M,C797S,L858R] (UniProt P00533, C797S/L858R/T790M). The experiment in a line: Inhibitory Activity for EGFR (L858R/T790M/C797S) Kinase. The procedure: (§1) A 50 ng/μL EGFR (L858R/T790M/C797S, BPS) stock solution was diluted with a kinase buffer (50 mM HEPES, 10 mM MgCl2, 2 mM DTT, 1 mM EGTA, 0.01% Tween 20), and 6 μL of 1.67× working solution at 0.00167 ng/μL (final concentration: 0.001 ng/μL) was added to each well. Different compounds dissolved in DMSO were added to wells using a nanoliter pipettor, resulting in the final concentrations of the compounds of 10 nM to 0.0024 nM (4-fold gradient, 7 concentrations in total), and blank control wells (without enzyme) and negative control wells (with enzyme, plus vehicle DMSO) were set, 2 replicate wells for each concentration. After enzyme was reacted with the compound or vehicle for 30 min, 5×ATP at 25 μM (final concentration: 5 μM, Sigma) prepared with a kinase buffer was mixed with 5× substrate at 0.5 μM (final concentration: 0.1 μM, ULight-poly GT, PerkinElmer) at a ratio of 1:1 (v:v), and the mixture was added to each well at 4 μL/well. After being sealed with a film, the plate was incubated at room temperature for 2 h, and then 5 μL of 4×EDTA at 40 mM (final concentration: 10 mM) was added to each well. After the plate was incubated for 5 min at room temperature, 5 μL of 4× detection reagent at 8 nM (final concentration: 2 nM, Eu-anti-phospho-tyrosine antibody, PerkinElmer) was added to each well. After being incubated at room temperature for 1 h, the plate was read using a PerkinElmer Envision multi-mode microplate reader (excitation: 320 nm, emission: 665 nm), and IC50 was calculated by four-parameter fitting.

Assay [2] deals with Epidermal growth factor receptor (EGFR)(L858R)(T790M) (Homo sapiens, UniProt P00533, L858R/T790M). The experiment in a line: Inhibitory Activity for EGFR (L858R/T790M) Kinase. The procedure: as §1, with “(L858R/T790M, Carna)” for “(L858R/T790M/C797S, BPS)”, “0.004175” for “0.00167”, “0.0025” for “0.001”
Chain of Epidermal growth factor receptor (EGFR)(L858R)(T790M) (P00533 25-1210 T790M/L858R limits assumed): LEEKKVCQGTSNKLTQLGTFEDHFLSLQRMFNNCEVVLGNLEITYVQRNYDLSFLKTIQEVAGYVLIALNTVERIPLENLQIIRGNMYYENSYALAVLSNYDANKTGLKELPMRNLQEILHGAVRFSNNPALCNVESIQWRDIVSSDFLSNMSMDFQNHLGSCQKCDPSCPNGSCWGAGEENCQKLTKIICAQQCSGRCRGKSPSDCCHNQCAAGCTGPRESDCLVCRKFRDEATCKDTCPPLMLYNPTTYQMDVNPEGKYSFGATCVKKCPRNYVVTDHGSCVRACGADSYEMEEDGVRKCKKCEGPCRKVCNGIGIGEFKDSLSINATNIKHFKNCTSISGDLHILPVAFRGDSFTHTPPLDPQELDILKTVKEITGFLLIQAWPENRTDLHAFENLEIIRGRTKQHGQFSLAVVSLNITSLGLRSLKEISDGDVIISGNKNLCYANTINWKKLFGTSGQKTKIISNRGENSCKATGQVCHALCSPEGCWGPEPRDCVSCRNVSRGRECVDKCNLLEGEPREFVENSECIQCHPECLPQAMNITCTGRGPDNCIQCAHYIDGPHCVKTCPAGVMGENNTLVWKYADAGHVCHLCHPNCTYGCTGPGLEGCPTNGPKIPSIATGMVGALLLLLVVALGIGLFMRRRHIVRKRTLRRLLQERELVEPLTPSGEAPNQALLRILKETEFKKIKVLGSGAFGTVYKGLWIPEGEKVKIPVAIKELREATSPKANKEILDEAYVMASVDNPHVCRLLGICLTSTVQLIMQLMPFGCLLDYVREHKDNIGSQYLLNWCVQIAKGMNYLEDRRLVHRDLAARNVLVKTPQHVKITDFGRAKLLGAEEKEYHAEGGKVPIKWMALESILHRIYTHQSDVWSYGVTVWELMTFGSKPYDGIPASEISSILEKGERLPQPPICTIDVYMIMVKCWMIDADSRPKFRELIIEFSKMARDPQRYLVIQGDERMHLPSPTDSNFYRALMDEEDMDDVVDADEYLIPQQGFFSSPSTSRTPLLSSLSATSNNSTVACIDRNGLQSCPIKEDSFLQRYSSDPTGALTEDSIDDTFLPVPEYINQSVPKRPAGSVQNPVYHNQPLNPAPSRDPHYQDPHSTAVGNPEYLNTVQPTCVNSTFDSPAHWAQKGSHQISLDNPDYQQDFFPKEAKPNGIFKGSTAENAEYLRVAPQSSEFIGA

Chain of Epidermal growth factor receptor [T790M,C797S,L858R] (P00533 25-1210 T790M/C797S/L858R limits assumed): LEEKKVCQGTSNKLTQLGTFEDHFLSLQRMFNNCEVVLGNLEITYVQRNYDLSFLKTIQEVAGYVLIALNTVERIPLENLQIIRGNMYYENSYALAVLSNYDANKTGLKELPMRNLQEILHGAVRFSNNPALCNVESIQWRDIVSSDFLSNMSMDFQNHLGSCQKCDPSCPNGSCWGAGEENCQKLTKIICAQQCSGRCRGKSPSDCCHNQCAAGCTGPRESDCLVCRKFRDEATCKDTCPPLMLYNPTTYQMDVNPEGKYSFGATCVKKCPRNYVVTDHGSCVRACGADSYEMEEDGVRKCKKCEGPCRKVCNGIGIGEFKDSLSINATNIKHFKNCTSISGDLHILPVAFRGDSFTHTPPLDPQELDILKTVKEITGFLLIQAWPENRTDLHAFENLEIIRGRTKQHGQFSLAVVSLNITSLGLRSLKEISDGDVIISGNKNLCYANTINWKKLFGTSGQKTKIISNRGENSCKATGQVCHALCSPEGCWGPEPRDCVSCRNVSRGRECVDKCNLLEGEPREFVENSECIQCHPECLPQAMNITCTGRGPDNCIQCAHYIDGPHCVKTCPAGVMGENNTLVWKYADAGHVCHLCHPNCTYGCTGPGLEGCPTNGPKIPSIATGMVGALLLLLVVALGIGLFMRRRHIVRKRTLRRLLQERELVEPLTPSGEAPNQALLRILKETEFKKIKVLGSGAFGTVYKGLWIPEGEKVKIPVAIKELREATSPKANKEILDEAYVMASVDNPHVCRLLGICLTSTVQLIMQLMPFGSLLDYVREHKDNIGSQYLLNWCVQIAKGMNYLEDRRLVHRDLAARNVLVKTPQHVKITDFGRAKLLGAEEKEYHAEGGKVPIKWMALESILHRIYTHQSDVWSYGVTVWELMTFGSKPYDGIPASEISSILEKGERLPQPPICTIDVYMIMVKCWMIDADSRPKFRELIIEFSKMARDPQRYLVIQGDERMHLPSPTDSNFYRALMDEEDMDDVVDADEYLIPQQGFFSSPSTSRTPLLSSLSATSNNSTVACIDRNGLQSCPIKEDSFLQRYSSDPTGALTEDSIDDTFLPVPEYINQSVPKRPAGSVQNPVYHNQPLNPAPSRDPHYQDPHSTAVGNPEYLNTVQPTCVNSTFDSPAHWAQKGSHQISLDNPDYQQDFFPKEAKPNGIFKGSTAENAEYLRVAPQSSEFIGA

Turning to `Cc1cc2cc(n1)-c1cnn(C)c1OCCC[C@@H](C1CC1)CN1/C(=N/C2=O)Nc2ccc(N[C@H]3CC[C@H](N(C)C)C3)cc21` [US20250034165, Example 136], the IC50 – broadly, the concentration needed to halve the response being measured – in assay [1] came to 0.34 nM; in assay [2], 0.71 nM.

`Cc1cc2cc(n1)-c1cnn(C)c1OCCC[C@@H](C1CC1)CN1/C(=N/C2=O)Nc2cc(N[C@H](C)CCN3CCCCC3)ccc21` [US20250034165, Example 139]: the IC50 in assay [1] was found to be 0.21 nM; in assay [2], 0.087 nM.

On to `Cc1cc2cc(n1)-c1cnn(C)c1OCCC[C@@H](C1CC1)CN1/C(=N/C2=O)Nc2cc(N[C@@H]3CC[C@@H](N(C)C)C3)ccc21` [US20250034165, Example 129], for which the half-inhibitory concentration (IC50) in assay [1] came out at 0.39 nM; in assay [2], 0.3 nM.

On to `Cc1cc2cc(n1)-c1cnn(C)c1OCCC[C@@H](C1CC1)CN1/C(=N/C2=O)Nc2ccc(N[C@H]3C[C@H](N(C)C)C3)cc21` [US20250034165, Example 128], for which the IC50 in assay [1] amounted to 0.46 nM; in assay [2] it was 0.63 nM.

For `Cc1cc2cc(n1)-c1cnn(C)c1OCCC[C@@H](C1CC1)CN1/C(=N/C2=O)Nc2cc(N[C@H]3C[C@@H](N(C)C)C3)ccc21` [US20250034165, Example 125], the half-inhibitory concentration (IC50) in assay [1] is 0.094 nM; in assay [2], 0.17 nM.

As for `Cc1cc2cc(n1)-c1cnn(C)c1OCCC[C@@H](C1CC1)CN1/C(=N/C2=O)Nc2cc(N[C@H]3CC[C@H](O)CC3)ccc21` [US20250034165, Example 151], the IC50 in assay [1] was 0.25 nM; in assay [2], 0.23 nM.

For `Cc1cc2cc(n1)-c1cnn(C)c1OCCC[C@@H](C1CC1)CN1/C(=N/C2=O)Nc2ccc(N[C@@H](C)CCN3CCCCC3)cc21` [US20250034165, Example 144], the figures for the IC50 in assay [1] and in assay [2] were 0.17 nM and 0.08 nM, respectively.

Turning to `Cc1cc2cc(n1)-c1cnn(C)c1OCCC[C@@H](C1CC1)CN1/C(=N/C2=O)Nc2cc(N[C@@H]3CC[C@H](N(C)C)C3)ccc21` [US20250034165, Example 133], the results for the IC50 in assay [1] and in assay [2] were 0.66 nM and 0.49 nM, respectively.

For `Cc1cc2cc(n1)-c1cnn(C)c1OCCC[C@@H](C1CC1)CN1/C(=N/C2=O)Nc2ccc(N[C@H]3CC[C@@H](N(C)C)CC3)cc21` [US20250034165, Example 99], inhibition in assay [1] was half-maximal at 0.21 nM (IC50).

`Cc1cc2cc(n1)-c1cnn(C)c1OCCC[C@@H](C1CC1)CN1/C(=N/C2=O)Nc2cc(N[C@H]3C[C@H](N(C)C)C3)ccc21` [US20250034165, Example 126] displayed a concentration for half-maximal inhibition (IC50) in assay [2] of 0.12 nM.

With `Cc1cc2cc(n1)-c1cnn(C)c1OCCC[C@@H](C1CC1)CN1/C(=N/C2=O)Nc2ccc(N[C@H]3C[C@@H](N(C)C)C3)cc21` [US20250034165, Example 127], the IC50 in assay [1] stood at 0.35 nM; in assay [2], 0.41 nM.

`Cc1cc2cc(n1)-c1cnn(C)c1OCCC[C@@H](C1CC1)CN1/C(=N/C2=O)Nc2ccc(N[C@H](C)CN3CCCCC3)cc21` [US20250034165, Example 141]: the IC50 came out at 0.24 nM in assay [1] and 0.084 nM in assay [2].

`Cc1cc2cc(n1)-c1cnn(C)c1OCCC[C@@H](C1CC1)CN1/C(=N/C2=O)Nc2ccc(NC(=O)CCN(C)C)cc21` [US20250034165, Example 112]: the IC50 in assay [1] came out at 0.12 nM; in assay [2], 0.14 nM.

With `Cc1cc2cc(n1)-c1cnn(C)c1OCCC[C@@H](C1CC1)CN1/C(=N/C2=O)Nc2cc(NC3CC(N(C)C)C3)ccc21` (stereo partly specified) [US20250034165, Example 93], the figures for the half-inhibitory concentration (IC50) in assay [1] and in assay [2] were 0.5 nM and 0.61 nM, respectively.

For `Cc1cc2cc(n1)-c1cnn(C)c1OCCC[C@@H](C1CC1)CN1/C(=N/C2=O)Nc2ccc(NC3CC(N(C)C)C3)cc21` (stereo partly specified) [US20250034165, Example 98], the IC50 came out at 0.28 nM in assay [1] and 0.26 nM in assay [2].

As for `Cc1cc2cc(n1)-c1cnn(C)c1OCCC[C@@H](C1CC1)CN1/C(=N/C2=O)Nc2cc(NC(C)C3(C)COC3)ccc21` (stereo partly specified) [US20250034165, Example 89], the figures for the half-maximal inhibitory concentration (IC50) in assay [1] and in assay [2] were 0.6 nM and 0.8 nM, respectively.

As to `Cc1cc2cc(n1)-c1cnn(C)c1OCCC[C@@H](C1CC1)CN1/C(=N/C2=O)Nc2ccc(N[C@H](C)CCN3CCCCC3)cc21` [US20250034165, Example 143], the 50% inhibitory concentration (IC50) is 0.4 nM in assay [1] and 0.11 nM in assay [2].

For the molecule `Cc1cc2cc(n1)-c1cnn(C)c1OCCC[C@@H](C1CC1)CN1/C(=N/C2=O)Nc2ccc(N[C@@H]3CC[C@H](N(C)C)C3)cc21` [US20250034165, Example 134], the IC50 in assay [1] is 0.48 nM; in assay [2], 0.55 nM.

Regarding `Cc1cc2cc(n1)-c1cnn(C)c1OCCC[C@@H](C1CC1)CN1/C(=N/C2=O)Nc2cc(N[C@H](C)CN3CCCCC3)ccc21` [US20250034165, Example 137], the 50% inhibitory concentration (IC50) in assay [1] is 0.52 nM; in assay [2] it was 0.13 nM.

Turning to `Cc1cc2cc(n1)-c1cnn(C)c1OCCC[C@@H](C1CC1)CN1/C(=N/C2=O)Nc2cc(N[C@H](C)CN(C)C)ccc21` [US20250034165, Example 67], the half-inhibitory concentration (IC50) in assay [1] is 0.49 nM; in assay [2], 0.14 nM.

As for `Cc1cc2cc(n1)-c1cnn(C)c1OCCC[C@@H](C1CC1)CN1/C(=N/C2=O)Nc2ccc(N[C@@H](C)CN3CCCCC3)cc21` [US20250034165, Example 142], the IC50 came out at 0.35 nM in assay [1] and 0.14 nM in assay [2].

As to `Cc1cc2cc(n1)-c1cnn(C)c1OCCC[C@@H](C1CC1)CN1/C(=N/C2=O)Nc2ccc(N(C)C3CCN(C)CC3)cc21` [US20250034165, Example 117], the concentration for half-maximal inhibition (IC50) in assay [1] amounted to 0.45 nM; in assay [2], 0.77 nM.

Turning to `Cc1cc2cc(n1)-c1cnn(C)c1OCCC[C@@H](C1CC1)CN1/C(=N/C2=O)Nc2ccc(N[C@H]3CC[C@@H](N(C)C)C3)cc21` [US20250034165, Example 132], the concentration for half-maximal inhibition (IC50) in assay [2] was found to be 0.082 nM.

For `Cc1cc2cc(n1)-c1cnn(C)c1OCCC[C@@H](C1CC1)CN1/C(=N/C2=O)Nc2cc(N[C@H]3CC[C@@H](N(C)C)C3)ccc21` [US20250034165, Example 131], half-maximal inhibition in assay [2] (IC50) required 0.094 nM.

In assay [2], `Cc1cc2cc(n1)-c1cnn(C)c1OCCC[C@@H](C1CC1)CN1/C(=N/C2=O)Nc2ccc(N[C@H]3CC[C@H](N(C)C)CC3)cc21` [US20250034165, Example 100] returned an IC50 of 0.23 nM.

With `Cc1cc2cc(n1)-c1cnn(C)c1OCCC[C@@H](C1CC1)CN1/C(=N/C2=O)Nc2cc(N[C@H]3CC[C@H](N(C)C)C3)ccc21` [US20250034165, Example 135], the IC50 came to 0.43 nM in assay [1] and 0.32 nM in assay [2].

Regarding `Cc1cc2cc(n1)-c1cnn(C)c1OCCC[C@@H](C1CC1)CN1/C(=N/C2=O)Nc2cc(N[C@@H](C)CCN3CCCCC3)ccc21` [US20250034165, Example 140], the half-maximal inhibitory concentration (IC50) in assay [1] turned out to be 0.3 nM; in assay [2], 0.11 nM.

As for `Cc1cc2cc(n1)-c1cnn(C)c1OCCC[C@@H](C1CC1)CN1/C(=N/C2=O)Nc2ccc(NC(=O)CN(C)C)cc21` [US20250034165, Example 111], the IC50 in assay [2] worked out at 0.26 nM.

`Cc1cc2cc(n1)-c1cnn(C)c1OCCC[C@@H](C1CC1)CN1/C(=N/C2=O)Nc2cc(N[C@@H](C)CN3CCCCC3)ccc21` [US20250034165, Example 138]: the IC50 turned out to be 0.35 nM in assay [1] and 0.13 nM in assay [2].

For the molecule `Cc1cc2cc(n1)-c1cnn(C)c1OCCC[C@@H](C1CC1)CN1/C(=N/C2=O)Nc2ccc(NC(=O)CCCN(C)C)cc21` [US20250034165, Example 113], the IC50 in assay [1] stood at 0.12 nM; in assay [2], 0.15 nM.

As to `Cc1cc2cc(n1)-c1cnn(C)c1OCCC[C@@H](C1CC1)CN1/C(=N/C2=O)Nc2ccc(N[C@@H]3CC[C@@H](N(C)C)C3)cc21` [US20250034165, Example 130], the results for the IC50 in assay [1] and in assay [2] were 0.36 nM and 0.3 nM, respectively.
